Measurements from article PMC7515829, “HKDC1 C-terminal based peptides inhibit extranodal natural killer/T-cell lymphoma by modulation of mitochondrial function and EBV suppression” (Leukemia, 2020).

Key:
Namalwa = test: Cell death IC50 by PI staining/FACS; assay type: cell-based; conditions: Human Burkitt’s lymphoma/EBV(+), 0.1–15 µM, 6 h (suspension) or 12 h (adherent cells), mean ± SEM, read-out: Peptide IC50 (µM), cell death, Namalwa
Method: Measurement of apoptosis and cell death. Apoptosis was evaluated by TUNEL assay using the In Situ Cell Death Detection Kit™ (Roche). Cells were fixed in 4% paraformaldehyde and labeled with TUNEL reagents. Stained cells were photographed by a fluorescence microscope (11). For cell death analysis, the propidium iodide (PI) staining was performed by addition of 6.25 µg/ml of PI to the cells, and cell death was immediately evaluated by FACS analysis (3).

HKDC1/VDAC1 = HKDC1/VDAC1 (Homo sapiens, UniProt P21796); test: IP/WB association of HKDC1 with VDAC1 in SNK6 cells; assay type: cell-based; parameters: endogenous in cells; host or cells: SNK6; conditions: 0.5 µM peptide, 6 h, vs CTL, n = 5 (Fig. 4c, d)
Method: Immunoprecipitation (IP) and Western Blotting (WB). Cell lysates were pre-cleared by pre-immune IgG plus Protein A agarose beads for 2 hours, and the supernatants were immunoprecipitated by the indicated antibodies and a 50% slurry of Protein A Agarose beads overnight at 4 °C (9). After washing with buffer containing 50 mM Tris, pH 7.5, 150 mM NaCl, 1% NP-40, and 0.5% deoxycholate with protease inhibitors, proteins were released, separated on 10% SDS-PAGE gels, blotted by primary antibodies, and then simultaneously incubated with the differentially labeled species-specific secondary antibodies, anti-RABBIT IRDye™ 800CW (green) and anti-MOUSE (or goat) ALEXA680 (red). Membranes were scanned and quantitated by the ODYSSEY Infrared Imaging System (LI-COR, NE) (10).

EBV [1] = test: EBV viral genomes/cell by qPCR in tumor tissue; assay type: in vivo, mouse; conditions: SNK6 xenograft, nude mice; intratumoral 50 µM peptide every 2 days from day ~18; tissue day 50; qPCR vs CTL; n = 4
Method: (§1) Detection of EBV copy number. Genomic DNA was extracted from treated SNK-6 cells or SNK-6 tumor tissue in mice using a QIAamp DNA Mini Kit (Qiagen). The EBV DNA copy number was measured through qPCR using 50ng of total DNA with EBV BMRF1 primers (see Table 1), and the results were normalized using cellular β-actin (primers see Table 1) as an internal control (13, 14). The Namalwa cell line, which contains 2 EBV viral genome copies, was used as a standard to prepare calibration curves for both EBV BMRF1 and β-actin genes, and the EBV viral load was presented as the number of viral genomes per cell (15, 16).

SNK6 cells [2] = test: 8-OHdG formation (DNA damage ELISA); assay type: cell-based, human; conditions: 0.5 µM peptide, 6 h, vs CTL, n = 5 (Fig. 3c)
Method: (§2) Measurement of DNA breaks. 8-OHdG formation was measured using an OxiSelect™ Oxidative DNA Damage ELISA Kit (Cat No. STA320, from Cell Biolabs Inc.) per manufacturers’ instructions. The formation of γH2AX was measured from nuclear extracts by western blotting using H2AX as the input control (8).

SNK6 cells [3] = test: γH2AX formation (western blot); assay type: cell-based, human; conditions: 0.5 µM peptide, 6 h, vs CTL, n = 5 (Fig. 3d)
Method: as §2

SNK6 xenograft [4] = test: Superoxide anion release from tumor tissue; assay type: in vivo, mouse; conditions: nude mice, intratumoral 50 µM peptide every 2 days from day ~18, tissue day 50, chemiluminescence vs CTL, n = 5
Method: In vivo superoxide release analysis. Superoxide anion (O2^.-) release from tumor tissues was determined using a luminol-EDTA-Fe enhanced chemiluminescence (CL) system supplemented with DMSO-TBAC (Dimethyl sulfoxide-tetrabutyl-ammonium chloride) solution for extraction of released O2^.- from tissues, as described previously (11). Superoxide levels were calculated from the standard curve generated by the xanthine/xanthine oxidase reaction (8).

SNK6 cells [5] = test: Cell proliferation by thymidine incorporation; assay type: cell-based, human; conditions: 0.5 µM peptide, 6 h, vs CTL, n = 5 (Fig. 5a)
Method: DNA synthesis by [^3H]-thymidine incorporation. Cell proliferation was evaluated as the rate of DNA synthesis by [^3H]-methylthymidine incorporation (17). […] At the end of the treatment, cells were incubated with serum-free media containing ^3H-methylthymidine (0.5 µCi/well) for 2 hours and then washed twice with PBS. Cellular DNA was precipitated using 10% trichloroacetic acid and solubilized with 0.4M NaOH (0.5 ml/well). Incorporation of ^3H-methylthymidine into the DNA was measured in a scintillation counter and was determined as counts per minute (CPM) (8).

SNK6 cells [6] = test: Cell invasion assay; assay type: cell-based, human; conditions: 0.5 µM peptide, 6 h, Matrigel, vs CTL, n = 5 (Fig. 5c)
Method: Migration and invasion assays. Cell migration and invasion assays were performed in 24-well chemotaxis plates with an 8μm polycarbonate filter membrane. The plates were coated with 20μg Matrigel for invasion assays and uncoated for migration assays. Invasion and migration were expressed as the number of migrated cells bound per microscopic field and averaged from at least four fields per assay in at least 4 experiments (18, 19).

EBV [7] = test: EBV viral genomes/cell by qPCR in SNK6 cells; assay type: cell-based; conditions: 0.5 µM peptide, 6 h, vs CTL, n = 4 (Fig. 3i)
Method: as §1

SNK6 xenograft [8] = test: SNK6 xenograft tumor volume; assay type: in vivo, mouse; conditions: nude mice, n = 5; for tumor volumes on day 36: intratumoral 50 µM peptide every 2 days from day ~18, day 36, vs CTL; for tumor volumes on day 48: intratumoral 50 µM peptide every 2 days from day ~18, day 48, vs CTL
Method: To measure malignant SNK6 xenograft growth, 100 µl of 1 × 10^5 SNK6 cells in PBS were mixed with 100 µl growth factor-reduced basement membrane matrix (Matrigel™, BD Biosciences) resulting in 200 µl of solution that was injected subcutaneously along the mouse flank at each intended tumor site. Tumor size was measured using a digital caliper and volume was calculated, and mice were randomly divided into four groups (n = 9 per group) when the tumor volume reached 50–100 mm^3 on day ~18 after tumor inoculation and given treatment as follows: Group 1 (control (CTL)) was intratumorally injected with HBSS buffer (5.33 mM KCl, 0.44 mM KH2PO4, 138 mM NaCl, 4 mM NaHCO3, 0.3 mM Na2HPO4, and 5.6 mM glucose, pH 7.3) containing 0.05% DMSO; Group 2 (Tf-D-HKN15) received HBSS buffer containing 0.05% DMSO with 50 µM Tf-D-HKN15 peptides; Group 3 (Tf-D-HKC15) received HBSS buffer containing 0.05% DMSO with 50 µM Tf-D-HKC15 peptides; Group 4 (Tf-D-HKC8) received HBSS buffer containing 0.05% DMSO with 50 µM Tf-D-HKC8 peptides. The xenografts were injected (two points, 20 µl per tumor) every 2 days. Beginning on the day of inoculation, mouse weight and tumor volume were monitored every 2 days. Mice were monitored for changes in body weight and sacrificed when values fell below 20% of their initial weight; the survival curve was calculated and the final tumor tissues were isolated for biomedical analysis.
To measure the malignant SNK6 xenograft growth, the 100µl of 1x10^5 SNK6 cells in PBS were mixed with 100µl growth factor-reduced basement membrane matrix (Matrigel™, BD Biosciences) resulting in 200µl of solution that was injected subcutaneously along the mouse flank at each intended tumor site. Tumor size was measured using a digital caliper and volume was calculated, and mice were randomly divided into 4 groups (n=9 per group) when the tumor volume reached 50-100 mm^3 on day ~18 after tumor inoculation: Group 1 (CTL) was intratumorally injected with HBSS buffer (5.33 mM KCl, 0.44 mM KH2PO4, 138 mM NaCl, 4 mM NaHCO3, 0.3 mM Na2HPO4, and 5.6 mM glucose, pH 7.3) containing 0.05% DMSO; Group 2 (Tf-D-HKN15) received HBSS buffer containing 0.05% DMSO with 50 µM Tf-D-HKN15 peptides; Group 3 (Tf-D-HKC15) received HBSS buffer containing 0.05% DMSO with 50 µM Tf-D-HKC15 peptides; Group 4 (Tf-D-HKC8) received HBSS buffer containing 0.05% DMSO with 50 µM Tf-D-HKC8 peptides. The xenografts were injected (two points, 20 µL per tumor) every two days. Beginning on the day of inoculation, mouse weight and tumor volume were monitored every 2 days. Mice were monitored for changes in body weight and sacrificed when values fell below 20% of their initial weight, the survival curve was calculated and the final tumor tissues were isolated for biomedical analysis.

ABCB1 = test: mRNA level by qPCR in SNK6 cells; assay type: cell-based, human; conditions: 0.5 µM peptide, 6 h, vs CTL, n = 4 (Fig. 3f)
Method: Fig. 3 Peptide for the last eight aa of HKDC1 at the C-terminal (Tf-D-HKC8) inhibits EBV replication and P-gp expression through ROS generation and DNA damage in ENKTL cells. SNK6 cells were treated with control (CTL), Tf-D-HKN15, Tf-D-HKC15, or Tf-D-HKC8 peptide (0.5 µM) for 6 h and the cells were used for biomedical analysis. a ROS formation, n = 5. b 3-nitrotyrosine (3-NT) formation, n = 5. c 8-OHdG formation, n = 5. d Quantitation of γH2AX formation, n = 5. e Representative western blotting bands for d. f mRNA level by qPCR for BZLF1, BMRF1, and ABCB1, n = 4. g Protein quantitation for Zta, EA-D, and P-gp, n = 5. h Representative pictures of western blots for g. i EBV viral genomes/cell by qPCR, n = 4. *P < 0.05, vs CTL group; ^¶P < 0.05, vs Tf-D-HKC15 group. Results were expressed as mean ± SEM.

Sequence of HKDC1/VDAC1 (P21796 2-283 limits assumed): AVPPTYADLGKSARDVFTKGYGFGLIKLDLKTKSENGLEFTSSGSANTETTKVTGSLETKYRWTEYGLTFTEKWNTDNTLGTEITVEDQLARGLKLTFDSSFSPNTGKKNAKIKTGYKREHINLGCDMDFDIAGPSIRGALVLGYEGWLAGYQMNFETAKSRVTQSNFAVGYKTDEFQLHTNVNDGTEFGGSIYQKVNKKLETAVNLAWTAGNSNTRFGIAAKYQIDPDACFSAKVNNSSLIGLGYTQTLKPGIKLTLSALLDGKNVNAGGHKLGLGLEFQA

HAIYPRH-ITAVAKRLQQAQKEN [Tf-D-HKC15]
IC50 (Namalwa): 0.9 ± 0.3 µM
association of HKDC1 with VDAC1 (HKDC1/VDAC1): 68%
EBV genome replication in tumor (EBV [1]): 59%
8-OHdG formation (SNK6 cells [2]): 157%
γH2AX formation (SNK6 cells [3]): 144%
superoxide anion release from tumor (SNK6 xenograft [4]): 203%
thymidine incorporation (SNK6 cells [5]): 71%
cell invasion (SNK6 cells [6]): 61%
EBV genome copies (EBV [7]): 62%
tumor volumes on day 36 (SNK6 xenograft [8]): 63%
tumor volumes on day 48 (SNK6 xenograft [8]): 70%
ABCB1 mRNA (ABCB1): 58%

HAIYPRH-LQQAQKEN [Tf-D-HKC8]
IC50 (Namalwa): 0.7 ± 0.4 µM
association of HKDC1 with VDAC1 (HKDC1/VDAC1): 24%
EBV genome replication in tumor (EBV [1]): 25%
8-OHdG formation (SNK6 cells [2]): 209%
γH2AX formation (SNK6 cells [3]): 189%
superoxide anion release from tumor (SNK6 xenograft [4]): 297%
thymidine incorporation (SNK6 cells [5]): 28%
cell invasion (SNK6 cells [6]): 29%
EBV genome copies (EBV [7]): 21%
tumor volumes on day 36 (SNK6 xenograft [8]): 36%
tumor volumes on day 48 (SNK6 xenograft [8]): 32%
ABCB1 mRNA (ABCB1): 27%
